How the values were obtained:
[1] = target: T1, Recombinant human α-L-iduronidase protein IDUA (Homo sapiens, UniProt P35475); assay: IDUA inhibition assay; type: biochemical; settings: 4-MU alpha-L-iduronide substrate, pH 3.5, even at high concentrations
T1 construct: Ala26-Pro653 with a C-terminal 10_His tag; 10xHis (C); host or cells: HEK293f
T1 sequence (P35475 26-653): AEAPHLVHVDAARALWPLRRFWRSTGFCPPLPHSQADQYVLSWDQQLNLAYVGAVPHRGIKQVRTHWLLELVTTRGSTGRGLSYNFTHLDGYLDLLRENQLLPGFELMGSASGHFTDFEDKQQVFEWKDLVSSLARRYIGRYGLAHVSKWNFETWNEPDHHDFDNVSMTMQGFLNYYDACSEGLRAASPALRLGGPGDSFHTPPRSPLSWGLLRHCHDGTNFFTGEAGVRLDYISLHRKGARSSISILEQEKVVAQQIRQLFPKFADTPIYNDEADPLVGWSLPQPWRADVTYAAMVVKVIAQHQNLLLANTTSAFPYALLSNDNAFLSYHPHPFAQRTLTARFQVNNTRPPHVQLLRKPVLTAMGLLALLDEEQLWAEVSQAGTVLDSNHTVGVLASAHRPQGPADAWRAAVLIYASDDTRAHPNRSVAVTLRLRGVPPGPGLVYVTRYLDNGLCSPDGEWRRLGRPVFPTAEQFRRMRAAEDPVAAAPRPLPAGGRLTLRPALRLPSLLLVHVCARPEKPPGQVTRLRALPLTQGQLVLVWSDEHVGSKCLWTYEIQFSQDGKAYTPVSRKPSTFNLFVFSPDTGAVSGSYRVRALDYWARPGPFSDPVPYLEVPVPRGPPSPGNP
Method: The ability of Compound of the Disclosure to inhibit IDUA was assessed by the assay described below.
Recombinant human α-L-iduronidase protein IDUA PR_06_WT_X (obtained in the Institute of Biotechnology and Biomedicine in the UAB, Bellaterra, Spain) was prepared at the desired concentration in PBS:
Recombinant Human IDUA. HEK293f. Ala26-Pro653 with a C-terminal 10_His tag. Protein buffer: 40 mM sodium acetate, 400 mM NaCl and 20% glycerol, pH=5. Produced by PPP IBB UAB.
The activity assay (3 replicates of each sample) included the following procedures:
In dark 96-well plates compatible with fluorometer: • 1) 25 µL of Recombinant protein or PBS (in blank samples); • 2) 1 µL CO (50X concentrate, made in an intermediate plate) or DMSO for the untreated samples; • 3) 25 µL of 200 µM substrate solution (from a stock solution of 20 mM of substrate in DMSO), 4-Methylumbelliferyl alpha-L-iduronide (Glycosynth, 44076) in 0,4 M sodium formate, pH 3,5, and 0,2% triton; • 4) Mix (shaker); • 5) 37° C. 60 min; • 6) Stop the reaction by adding 200 µL of 0,5 M Glycine / 0,3 M NaOH, pH=10; and • 7) Read Fluorescence at Ex/Em: 340/460 nm.

[2] = target: T2, Aldurazyme (laronidase) IDUA activity in plasma (Homo sapiens, UniProt P35475); assay: IDUA assay in plasma after i.v. Aldurazyme with or without compound; type: in vivo, C57BL/6 male mice; settings: mice, compound 5, 10, 20 mg/kg i.v. + Aldurazyme 1.2 mg/kg i.v.
T2 construct: purchased Aldurazyme; host or cells: administered i.v. to C57BL/6 male mice
T2 sequence (P35475 26-653 limits assumed): T1 sequence (P35475 26-653)
Method: (§1) Evaluation of IDUA activity in mouse bone joint cartilage samples obtained from BIO-PCY-19-025 study, where C57BL/6 male mice were administered with 1.2 mg/kg Aldurazyme (i.v. bolus administration) in the presence and absence of Compound A.
(§2) Groups Details: • G1: Vehicle 2 +Aldurazyme (1.2 mg/kg,i.v.,) QD×1(n=6) [vehicle 2:NMP (5%) + Solutol HS-15 (5%) + Normal saline (45%) + PEG-400 (45%)]; • G2: Compound A (5 mg/kg, i.v.) + Aldurazyme (1.2 mg/kg, i.v.) QD x 1 (n=6); • G3: Compound A (10 mg/kg, i.v.) + Aldurazyme (1.2 mg/kg, i.v.) QD x 1 (n=6); • G4: Compound A (20 mg/kg, i.v.) + Aldurazyme (1.2 mg/kg, i.v.) QD x 1 (n=6); and • G5: Naïve Control (n=6).
Plasma samples from mice were collected at indicated time points. Plasma samples were diluted in formate buffer and total protein was estimated using Bradford reagent. 25 µl of tissue homogenate and plasma samples were added to 25 µl of 0.18 mM of 4 MUI substrate and incubated at 37° C. for 30 min. Reaction was terminated using 200 µl of stop solution (0.3 M Glycine and 0.2 M sodium carbonate, pH 10.4). Plate was read at excitation 355 nm and emission 460 nm. […]
(§3) IDUA activity was assessed from 4-MU standard curve. […] Final IDUA enzyme activity was expressed as nmols/mg of protein/hr. Data was analyzed using GraphPad prism software with one way ANOVA followed by Dunnett’s comparison test. […]

[3] = target: T3, Aldurazyme (laronidase) IDUA activity in bone marrow (Homo sapiens, UniProt P35475); assay: IDUA assay in bone marrow after i.v. Aldurazyme with or without compound; type: in vivo, C57BL/6 male mice; settings: mice, compound i.v. + Aldurazyme 1.2 mg/kg i.v.
T3 construct: purchased Aldurazyme; host or cells: administered i.v. to C57BL/6 male mice
T3 sequence (P35475 26-653 limits assumed): T1 sequence (P35475 26-653)
Method: as §1, §2
Bone marrow samples from mice were collected at indicated time points. After repeated freeze thaw cycles for protein extraction, bone marrow samples were diluted in formate buffer (0.4 M, pH 3.5). Total protein was estimated using Bradford reagent. 25 µl of tissue homogenate and plasma samples were added to 25 µl of 0.18 mM of 4 MUI substrate and incubated at 37° C. for 30 min. […] Plate was read at excitation 355 nm and emission 460 nm. […]
as §3

[4] = In vivo safety / IV maximum tolerated dose

Question: With CCN(CC(=O)Nc1c(Cl)cccc1Cl)Cc1nc2ccsc2c(=O)[nH]1 [Compound A] as the compound, how does the “inhibition of IDUA enzymatic activity” value [1] read?
Answer: The value was “does not inhibit human IDUA”.

Question: And the “plasma levels / PK profile of Laronidase” value [2]?
Answer: The value was “increasing its plasma levels in a dose-dependent manner”.

Question: And the “IDUA enzymatic activity in bone marrow” value [3]?
Answer: The value was “increases IDUA enzymatic activity in a panel of tissues”.

Question: And the “safety at tested doses” value ([4]; i.v., all doses tested)?
Answer: Its value is “safe at all doses tested”.

Question: And the MTD ([4]; mouse, in vivo, iv)?
Answer: The MTD was 45 mg/kg.

Source: patent publication US20230140216A1, “COMBINATION THERAPY FOR TREATING MPS1” (GAIN THERAPEUTICS SA, priority 2020, published 2023)
